The values that follow come from patent US8895260B2, “Screening assay for ribosomal antibiotics” (priority 2006, dated 2014).

Holding throughout (format): cell-based, Mycobacterium smegmatis
Test [1] concerns wild type bacterial cells 1408A. In words: MIC of rRNA mutants, wild type bacterial cells 1408A. As for the experimental part: (§1) The recombinants carrying the respective mutational alterations in the functional rRNA operon were colony-purified and subjected to determinations of minimal inhibitory concentrations (MIC) to determine ribosomal drug susceptibility. Cultures from single colonies were grown in LB medium supplemented with 0.05% Tween 80 and used for MIC tests in a microtiter plate format. Starting cultures contained 200 μl of bacterial cells at an optical density of 0.025 at 600 nm, and the respective drug was added in twofold series of dilution.
(§2) This was illustrated by the polymorphism of 16S rRNA position 1408 and susceptibility to 4,6-aminoglycosides with a 6′ NH3 group (e.g. gentamicin, tobramycin, kanamycin). 4,6-aminoglycosides with a 6′ NH3 group bound to the ribosomal A-site encompassing nucleotides […] and selectively targeted the bacterial ribosome, but not the eukaryotic cytoplasmic ribosome. An important polymorphism in the rRNA concerns nucleotide position 1408: prokaryotic ribosomes are characterized by an adenine, eukaryotic cytoplasmic ribosomes by a guanine. Replacing the adenine by a guanine at 16S rRNA position 1408 made the bacterial ribosome completely unsusceptible towards 4,6-amino-glycosides with a 6′ NH3 group (see Table). […]

The subject of test [2] is mutant bacterial cells 1408G. In words: MIC of rRNA mutants, mutant bacterial cells 1408G (human cytoplasmic nucleotide at 16S rRNA position 1408). Here is the method: as §1, §2
The subject of test [3] is bacterial hybrid ribosomes carrying Leishmania Trypanosoma rRNA decoding site. Put plainly: MIC, bacterial hybrid ribosomes carrying protozoan rRNA decoding site. Details: unit not given here. Conditions: Leishmania Trypanosoma decoding site in bacterial hybrid ribosome. Here is the method: as §1
(§3) The MIC data shown below in example 5 were obtained with bacterial hybrid ribosomes carrying human and protozoan rRNA decoding sites in a method of the invention. […] Nucleotide positions depicted in bold represent residues that are specific for the corresponding eukaryotic decoding site. The part of the human and protozoan decoding sites introduced into the bacterial ribsosome is boxed. The nucleotide positions are numbered according to the numbering of homologous positions in E. coli 16S rRNA.

The subject of test [4] is bacterial hybrid ribosomes carrying Homo sapiens mitochondrion rRNA decoding site. In words: MIC, bacterial hybrid ribosomes carrying human mitochondrial rRNA decoding site. Also noted: unit not given here. Conditions: Homo sapiens mitochondrion decoding site in bacterial hybrid ribosome. Here is the method:
as §1, §3

The next test relates to M. smegmatis. In words: MIC, M. smegmatis with bacterial rRNA decoding site. Also noted: unit not given here. Here is the method: as §1, §3

Take `NC[C@H]1O[C@H](O[C@H]2[C@H](O)[C@@H](O[C@H]3O[C@H](CO)[C@@H](O)[C@H](N)[C@H]3O)[C@H](N)C[C@@H]2N)[C@H](N)C[C@@H]1O` [Tobramycin]: the MIC was 2 µg/mL in test [1] (Mycolicibacterium smegmatis, 72 h, read-out: MIC, minimal inhibitory concentration) and over 1020 µg/mL in test [2] (Mycolicibacterium smegmatis, CELLS1408G, 72 h, read-out: MIC, minimal inhibitory concentration).

With Gentamicin, the MIC in test [3] is given as over 1024; in test [4], 64-128; in the test with M. smegmatis, 1. Besides, the “MIC, minimal inhibitory concentration” value in test [1] (wild type bacterial cells 1408A, 72h at 37° C.) is 1 µg/mL; in test [2] (mutant bacterial cells 1408G, 72h at 37° C.), over 1024 µg/mL.

Regarding Neomycin, the MIC in test [3] is over 1024; in test [4], 16-32; with M. smegmatis, 0.5.
